Where two headings read alike, the source gives them in different places.
Key:
[1] = tested on: Ag-induced bronchoconstriction; assay: Ag-induced bronchoconstriction in the guinea pig; format: in vivo, guinea pig (Hartley strain); conditions: for ED50: Cavia porcellus, iv, 10 min, read-out: ID50, Ag-induced bronchoconstriction
Protocol: Pharmacology Example 3: Ag-induced bronchoconstriction
All experiments utilized male guinea pigs (Hartley strain), weighing 350 to 500 g. The animal was passively sensitized with rabbit anti-chicken egg albumin (1.3 mg/kg), 17-24 hrs before ovaibumin challenge. Passively sensitized animals were anesthetized with ethyl carbamate 1.5 g/kg, i.p.). An intratracheal cannula was inserted into trachea and indwelling catheters were inserted into the right carotid artery and left jugular vein. The animals were ventilated with a small animal respirator (UGO BASILE 7025, 70 breaths/min, 1 ml/stroke/100 g). To monitor dead or not, mean arterial pressure was measured continuously with a pressure transducer (Physiological Pressure Transducer, MICRON INSTRUMENT MP-15) connected to an amplifier (COULBOURN INSTRUMENT 572-25) and recorder (COULBOURN INSTRUMENT R14-18). The rate of bronchoconstriction was measured as an increase in lung overflow with a bronchospasm transducer (UGO BASILE 7020) from a side arm off the tracheal cannula, and expressed as a percentage of maximum broncoconstriction obtained by clamping off the tracheal cannular. Test compounds or vehicle (0.5% DMSO) were administered through the cannula into the jugular vein and ovalbumin (1.0 mg/kg, i.v.) was administered 10 minutes later. Bronchoconstriction response was compared to that obtained with control group treated with vehicle. Percent inhibition was calculated for each dose. If necessary, log dose-response curves were generated and the ID50 values were determined by regression analysis.

[2] = tested on: PAF-induced rabbit platelet aggregation; assay: PAF-induced rabbit platelet aggregation; format: cell-based, rabbit (New Zealand white); conditions: Oryctolagus cuniculus, read-out: IC50, inhibition of PAF-induced rabbit platelet aggregation
Protocol: Pharmacology Example 1: PAF-induced rabbit platelet aggregation
Blood was collected from the ear artery of a male New Zealand white rabbit and mixed with 3.8% sodium citrate in a 9:1 volume ratio. Platelet rich plasma (PRP) was obtained by centrifugation of the blood at 150 g for 10 min at room temperature. The number of platelets was adjusted to 3×10^8 platelets/ml with platelet poor plasma. Platelet aggregation was monitored by continuous recording of light transmission in a dual-channel aggregometer (Chrono-Log 560-VS) coupled with a two channel recorder (Chrono-Log 707). Stirred PRP was treated with various concentrations of the test compounds or vehicle (0.5% DMSO) for 2 min and then PAF(5×10^-9 M) was added to induce platelet aggregation.
Inhibition values were calculated by comparing the extent of aggregation obtained in the presence of the vehicle alone (0.5% DMSO) and in the presence of a test compound. Log concentration-response curves were generated and the IC50 values were determined by regression analysis.
Table 1 lists results from this assay for inhibition of PAF-induced rabbit platelet aggregation for illustrative examples of the compounds of this invention.

PAF induced Lethality = PAF induced Lethality in Mice; format: in vivo; conditions: 10 mg/kg intraperitoneally, 2 minutes before PAF 10 μg/kg I.V.; alive after 2 hours; control 0
Protocol: Pharmacology Example 5: PAF induced Lethality in Mice
PAF given I.V. (10 μg/kg) to mice causes an immediate hypotensive shock leading to death in 1 hour or less. Compounds were given intraperitoneally (dose of compounds : 10 mg/kg) at 2 minutes before the PAF challenge. Animals alive after 2 hours were counted and the activity of test compounds expressed as % survival corrected for any control (saline treated) animals which survived the PAF challenge.

bronchial eosinophilia = assay: aeroallergen-induced bronchial infiltration of eosinophils in the bronchoalveolar lavage fluid; format: in vivo, guinea pig (Hartley strain); conditions: 30 mg/kg p.o., + 4h after aeroallergen challenge; for % Inhibition of bronchial eosinophilia: at 24 hours; for Eosinophils in BALF (Mean ± SEM): counted at 24 hours, vehicle 927 ± 131
Protocol: Pharmacology Example 4: The aeroallergen-induced bronchial infiltration of eosinophils in the bronchoalveolar lavage fluid.
Adult, male Hartley-strain guinea pigs weighing 492-735 g were sensitized by intraperitoneal injection of 10 μg ovalbumin (OA) mixed in 100-mg aluminum hydroxide. And guinea pigs were pretreated with pyrilamine (1.0 mg/kg) intraperitoneally 30 min. before aeroallergen challenge. Individual guinea pigs were placed in a two-liter glass chamber and exposed to a five aerosol of OA solution (0.5 mg/ml in saline containing 0.02% antifoal emulsion for a period of 10 min.).
4 hours after aero allergen challenge, the guinea pigs received either vehicle or compounds suspended in 1% acacia by oral garage.
24 hours after aero allergen challenge, the animals were euthanized with an i.p. overdose of pentobarbital sodium (100 mg/kg). The abdominal cavity was opened, and the animal was exsaguinated by cutting the abdominal aorta. A midline incision was made through the rib cage, exposing the heart and lungs.
The trachea was cannulated with an 18-gauge stainless steel feeding tube; 20 ml/kg of prewarmed (37° C.) physiological saline was instilled and the BALF was gently withdrawn.
BALF (amounting to 60-80% of the saline infused) was transferred to a 10 ml vacutainer containing 0.10 ml of 15% EDTA solution and centrifugated at 2400 rpm for 10 min.
The supernatant was poured off, and the cell pellet was suspended in physiological saline equal to the ratio of BALF recovered (ml) and physiological saline instilled in the lungs (ml), multiplied by two.
The eosinophils in BALF were counted by Unopette Test 5877.
The mean numbers of eosinophils±SEM in the BALF of compound-treated animals and corresponding control "vehicle"-treated animals were compared by Student's t-test. A P value of 0.05 or less was considered significant. Table 4 lists results from this assay for inhibition of bronchial eosinophilia for illustrative examples of this invention.

[3] = tested on: PAF-induced bronchoconstriction; assay: PAF-induced bronchoconstriction in the guinea pig; format: in vivo, guinea pig (Hartley strain); conditions: jugular vein, PAF 100 ng/kg i.v.
Protocol: Pharmacology Example 2: PAF-induced bronchoconstriction
All experiments utilized male guinea pigs (Hartley strain), weighing 350 to 450 g, that were anesthetized with ethyl carbamate (1.5 g/kg, i.p.). An intratracheal cannula was inserted into trachea and indwelling catheters were inserted into the right carotid artery and left jugular vein. The animals were ventilated with a small animal respirator (UGO BASILE 7025, 70 breaths/min, 1 ml/stroke/100 g). To monitor dead or not, mean arterial pressure was measured continuously with a pressure transducer (Physiological Pressure Transducer, MICRON INSTRUMENT MP-15) connected to an amplifier (COULBOURN INSTRUMENT 572-25) and recorder (COULBOURN INSTRUMENT R14-18). The rate of bronchoconstriction was measured as an increase in lung overflow with a bronchospasm transducer (UGO BASILE 7020) from a side arm off the tracheal cannula, and expressed as a percentage of maximum bronchoconstriction obtained by clamping off the tracheal cannula. Test compounds or vehicle (0.5% DMSO) were administered through the cannula into the jugular vein and PAF (100 ng/kg, i.v.) was administered. Bronchoconstriction response was compared to that obtained with control group treated with vehicle. Percent inhibition was calculated for each dose. Log dose-response curves were generated and the ID50 values were determined by regression analysis, and the results are presented in Table 2.
Table 2: Results for inhibition of PAF-induced bronchoconstriction in the guinea pig.

[4] = 0.1 mg/kg, jugular vein, ovalbumin 1.0 mg/kg i.v. 10 minutes later
[5] = 0.5 mg/kg, jugular vein, ovalbumin 1.0 mg/kg i.v. 10 minutes later
[6] = 1.0 mg/kg, jugular vein, ovalbumin 1.0 mg/kg i.v. 10 minutes later
[7] = jugular vein, ovalbumin 1.0 mg/kg i.v. 10 minutes later

Structure (SMILES)	% inhibition of Ag-induced bronchoconstriction [1, 4] [%]	% inhibition of Ag-induced bronchoconstriction [1, 5] [%]	% inhibition of Ag-induced bronchoconstriction [1, 6] [%]	ED50 [1] [mg/kg]	IC50 [2] [nM]	Survival rate (%) (PAF induced Lethality)	% Inhibition of bronchial eosinophilia (bronchial eosinophilia) [%]	Eosinophils in BALF (Mean ± SEM) (bronchial eosinophilia)	ED50 [1, 7] [mg/kg]	IC50 ([2]; rabbit PRP, PAF 5×10^-9 M) [nM]	% inhibition of PAF-induced bronchoconstriction ([3]; 0.01 mg/kg) [%]	% inhibition of PAF-induced bronchoconstriction ([3]; 0.02 mg/kg) [%]	% inhibition of PAF-induced bronchoconstriction ([3]; 0.04 mg/kg) [%]	ED50 ([3]; Cavia porcellus, iv, read-out: ID50, PAF-induced bronchoconstriction) [mg/kg]
CC1C(=O)OC2C(O)C34C5CC(C(C)(C)C)C36C(OC(=O)C6OCc3ccc6c(c3)OCO6)OC4(C(=O)O5)C12O (centres unmarked) [Example 82, 10-piperonyloxy-Ginkgolide B]	60	94	100	0.09	50.7	100	34	616 ± 145 10^3 cells/m1 BALF						
Cc1cnc(COC2C(=O)OC3OC45C(=O)OC6CC(C(C)(C)C)C32C64C(O)C2OC(=O)C(C)C25O)c(C)c1 (centres unmarked) [Example 96, 10-(3,5-dimethyl-2-pyridinyl) -methoxy-Ginkgolide]	50	97	100			100	31	641 ± 134 10^3 cells/m1 BALF	0.1	24.5	17	26	96	0.023
CC1C(=O)OC2C(O)C34C5CC(C(C)(C)C)C36C(OC(=O)C6OCc3ccc(O)cn3)OC4(C(=O)O5)C12O (centres unmarked) [Example 115, 10-(2-(5-hydroxypyridinyl)-methoxy)-Ginkgolide B]	65	100	100			100			0.08	152				
